Results taken from ChEMBL document CHEMBL1201862, “PubChem BioAssay data set” (2004).
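Assay format: 96-well plates, 48-hour exposure. GI50 is the concentration that inhibits growth by half.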 The source made the active and inactive calls. Rule as the data show it: active = GI50 up to about 1.1 µM and inactive = higher.

Assays:
Assay in all cases: NCI tumour cell line growth inhibition, 48 h
IGROV-1 = test system: IGROV-1
KM12 = test system: KM12
SK-MEL-2 = test system: SK-MEL-2
COLO 205 = test system: COLO 205
UACC-62 = test system: UACC-62
SK-MEL-28 = test system: SK-MEL-28
SK-OV-3 = test system: SK-OV-3
MDA-MB-435 = test system: MDA-MB-435
ACHN = test system: ACHN
786-0 = test system: 786-0
UO-31 = test system: UO-31
T47D = test system: T47D
M14 = test system: M14
MDA-MB-231 = test system: MDA-MB-231
LOX IMVI = test system: LOX IMVI
HCT-116 = test system: HCT-116
HL-60 = test system: HL-60
RPMI-8226 = test system: RPMI-8226
HOP-92 = test system: HOP-92
TK-10 = test system: TK-10
OVCAR-3 = test system: OVCAR-3
EKVX = test system: EKVX
SW-620 = test system: SW-620
SR = test system: SR
HT-29 = test system: HT-29
K562 = test system: K562
NCI-H522 = test system: NCI-H522
DU-145 = test system: DU-145
A549 = test system: A549
NCI/ADR-RES = test system: NCI/ADR-RES
RXF 393 = test system: RXF 393
NCI-H226 = test system: NCI-H226
HOP-62 = test system: HOP-62
PC-3 = test system: PC-3
SNB-19 = test system: SNB-19
NCI-H23 = test system: NCI-H23
U-251 = test system: U-251
HCC 2998 = test system: HCC 2998
Hs-578T = test system: Hs-578T
SK-MEL-5 = test system: SK-MEL-5
MOLT-4 = test system: MOLT-4
SF-295 = test system: SF-295
HCT-15 = test system: HCT-15
MCF7 = test system: MCF7
SF-268 = test system: SF-268
UACC-257 = test system: UACC-257
CAKI-1 = test system: CAKI-1
OVCAR-4 = test system: OVCAR-4
SF-539 = test system: SF-539
NCI-H460 = test system: NCI-H460
OVCAR-5 = test system: OVCAR-5
MDA-N = test system: MDA-N
SN12C = test system: SN12C
A498 = test system: A498
Malme-3M = test system: Malme-3M
OVCAR-8 = test system: OVCAR-8
SNB-75 = test system: SNB-75
CCRF-CEM = test system: CCRF-CEM

Measured: GI50

O=C1OCC2(CO1)CC1C=CC2C1 (stereo not drawn)
inactive: IGROV-1 > 100 µM | KM12 > 100 µM | SK-MEL-2 > 100 µM | COLO 205 > 100 µM | UACC-62 > 100 µM | SK-MEL-28 > 100 µM | SK-OV-3 > 100 µM | MDA-MB-435 > 100 µM | ACHN > 100 µM | 786-0 > 100 µM | UO-31 > 100 µM | T47D > 100 µM | M14 > 100 µM | MDA-MB-231 > 100 µM | LOX IMVI > 100 µM | HCT-116 > 100 µM | HL-60 > 100 µM | RPMI-8226 > 100 µM | HOP-92 > 100 µM | TK-10 > 100 µM | OVCAR-3 > 100 µM | EKVX > 100 µM | SW-620 > 100 µM | SR > 100 µM | HT-29 > 100 µM | K562 > 100 µM | NCI-H522 > 100 µM | DU-145 > 100 µM | A549 > 100 µM | NCI/ADR-RES > 100 µM | RXF 393 > 100 µM | NCI-H226 > 100 µM | HOP-62 > 100 µM | PC-3 > 100 µM | SNB-19 > 100 µM | NCI-H23 > 100 µM | U-251 > 100 µM | HCC 2998 > 100 µM | Hs-578T > 100 µM | SK-MEL-5 > 100 µM | MOLT-4 > 100 µM | SF-295 > 100 µM | MCF7 > 100 µM | SF-268 > 100 µM | UACC-257 > 100 µM | CAKI-1 > 100 µM | OVCAR-4 > 100 µM | SF-539 > 100 µM | NCI-H460 > 100 µM | OVCAR-5 > 100 µM | MDA-N > 100 µM | SN12C > 100 µM | A498 > 100 µM | Malme-3M > 100 µM
> 100 µM: HCT-15

CN(C)C1COC2Cc3ccccc3C1O2 (stereo not drawn)
> 100 µM: HCT-15
inactive: SK-OV-3 > 100 µM | ACHN > 100 µM | M14 > 100 µM | LOX IMVI > 100 µM | HCT-116 > 100 µM | HOP-92 > 100 µM | TK-10 > 100 µM | SR > 100 µM | HT-29 > 100 µM | K562 > 100 µM | A549 > 100 µM | RXF 393 > 100 µM | NCI-H23 > 100 µM | OVCAR-8 > 100 µM | SF-295 > 100 µM | SF-268 > 100 µM | CAKI-1 > 100 µM | OVCAR-4 > 100 µM | OVCAR-5 > 100 µM | SN12C > 100 µM

CCOC(=O)C(=O)N1C(C)=C(C(=O)OCC)CC(C(=O)OCC)=C1C
> 100 µM: HCT-15
inactive: IGROV-1 > 100 µM | KM12 > 100 µM | SK-MEL-2 > 100 µM | COLO 205 > 100 µM | UACC-62 > 100 µM | SK-MEL-28 > 100 µM | SK-OV-3 > 100 µM | MDA-MB-435 > 100 µM | ACHN > 100 µM | 786-0 > 100 µM | UO-31 > 100 µM | T47D > 100 µM | M14 > 100 µM | MDA-MB-231 > 100 µM | LOX IMVI > 100 µM | HCT-116 > 100 µM | HL-60 > 100 µM | RPMI-8226 > 100 µM | HOP-92 > 100 µM | TK-10 > 100 µM | OVCAR-3 > 100 µM | EKVX > 100 µM | SW-620 > 100 µM | SR > 100 µM | SNB-75 26.7 µM | K562 > 100 µM | NCI-H522 > 100 µM | DU-145 > 100 µM | A549 > 100 µM | RXF 393 > 100 µM | HOP-62 > 100 µM | PC-3 > 100 µM | SNB-19 > 100 µM | NCI-H23 > 100 µM | HCC 2998 > 100 µM | Hs-578T > 100 µM | SK-MEL-5 > 100 µM | MOLT-4 > 100 µM | SF-295 > 100 µM | CCRF-CEM > 100 µM | MCF7 > 100 µM | UACC-257 > 100 µM | CAKI-1 > 100 µM | OVCAR-4 > 100 µM | SF-539 > 100 µM | NCI-H460 > 100 µM | OVCAR-5 > 100 µM | MDA-N > 100 µM | SN12C > 100 µM | A498 > 100 µM | Malme-3M > 100 µM
